Experimental data as given in paper PMC5524405 (PLoS ONE, 2017).
Each block holds one compound with its values, some of them ahead of it.

Columns and labels:
CIA DBA/1 mice [1] = assay: CIA mouse model, preventative dosing, with or without murine CTLA-4-Ig; type: in vivo; conditions: BMS-986142 10 mg/kg PO QD
Protocol: (§1) Induction of CIA was performed as described previously. In brief, male DBA/1 mice (Harlan Laboratories, 8–10 weeks old) were injected subcutaneously at the base of the tail with bovine type II collagen (200 μg) admixed with reconstituted Sigma Adjuvant System (Sigma-Aldrich). The mice were boosted 21 days later in the same manner. […] Dosing proceeded from day 0 through study completion (36 days).
(§2) Threshold settings were optimized using histomorphometric methods.

[2] = system: B cells in mouse whole blood; assay: Mouse whole blood BCR-stimulated CD69 expression on B cells; type: cell-based
Protocol: For mouse whole blood, stimulation used AffiniPure F(ab’)2 fragment goat anti-mouse IgG + IgM (Jackson ImmunoResearch) at 200 μg/mL and 1 ng/mL mouse IL-4 (R&D Systems, Minneapolis, MN, USA) for 5 hours at 37°C with agitation. After staining with APC rat anti-mouse CD19 antibody (BD Biosciences) to identify the B cells, the amount of CD69 expression was quantitated by FACS using FITC-conjugated anti-mouse CD69 monoclonal antibody (BD Biosciences).

CSK = CSK (Homo sapiens, UniProt P41240); assay: CSK enzymatic assay
Protocol: (§6) Product turnover was quantitated using a Caliper LabChip 3000 (Caliper Life Sciences, Hopkinton, MA, USA). […] [^33P]-ATP was used as a substrate at a concentration equal to KM^app, and incorporation of radiolabel into peptide or protein substrates was measured.

human tonsillar B cells [3] = assay: BCR-stimulated TNF-α from human tonsillar B cells; type: cell-based; conditions: B-cell, BCR (anti-IgM)
Protocol: (§3) After 1 hour of incubation at 37°C, the cells were stimulated with 40 μg/mL AffiniPure F(ab’)2 fragment goat anti-human IgM (Jackson ImmunoResearch) and 10 ng/mL IL-4 (Peprotech). After an additional 4.5 hours of incubation, the supernatants were collected and the levels of IL-6 and TNF-α were measured using an enzyme immunoassay.

[4] = system: human peripheral blood mononuclear cells; assay: IC-stimulated TNF-α production in peripheral blood mononuclear cells; type: cell-based; conditions: PBMC, FcγR (immune complex)
Protocol: (§4) TNF-α and IL-6 levels were measured using enzyme-linked immunosorbent assay (ELISA; TNF-α OptEIA, BD Biosciences; IL-6 OptEIA, BD Biosciences). For analogous experiments measuring the effect of Toll-like receptor 4 stimulation on these endpoints, lipopolysaccharide (Sigma-Aldrich, St. Louis, MO, USA) was used as the stimulus.

Ramos B cells [5] = assay: BCR-stimulated PLCγ2 phosphorylation in Ramos B cells; type: cell-based; conditions: Homo sapiens, anti-IgM, read-out: IC50, BTK-catalyzed phosphorylation of PLCγ2
Protocol: The cells were pelleted and lysed, and PLCγ2 levels were measured by immunoblot using rabbit anti-human phosphoY759-PLCγ2 (Cell Signaling Technology, Danvers, MA, USA) and analyzed using the Odyssey Infrared Imaging System (Li-Cor Biosciences, Lincoln, NE, USA) with normalization to an actin control to ensure consistent loading.

CIA DBA/1 mice [6] = assay: CIA mouse model, therapeutic dosing, with or without etanercept; type: in vivo; conditions: for Clinical score reduction at end of study: therapeutic (from day 21)
Protocol: Induction of CIA was performed as described previously. In brief, male DBA/1 mice (Harlan Laboratories, 8–10 weeks old) were injected subcutaneously at the base of the tail with bovine type II collagen (200 μg) admixed with reconstituted Sigma Adjuvant System (Sigma-Aldrich). The mice were boosted 21 days later in the same manner. […]
as §2

[7] = system: KLH-immunized BALB/c mice; assay: Primary anti-KLH antibody responses in mice; type: in vivo, mouse
Protocol: Activity against a KLH-induced antibody response in mice was used as a measure of antigen-driven B-cell responses. Female BALB/c mice (8–12 weeks old) were immunized intraperitoneally (IP) with 250 μg of KLH (Pierce, Rockford, IL, USA) in phosphate-buffered saline on day 0. […] Captured anti-KLH antibodies were detected using horseradish peroxidase-conjugated antibody specific for mouse IgM or IgG (Southern Biotechnology Associates, Birmingham, AL, USA) and the 3,3′,5,5′-tetramethylbenzidine peroxidase substrate system (Kirkegaard and Perry Laboratories, Gaithersburg, MD, USA). Optical densities of developed plates were quantitated in a SpectraMax Plus ELISA plate reader (Molecular Devices, Sunnyvale, CA, USA). Sera collected from mice on day 7 or day 14 after immunization with KLH were pooled and used as a standard comparator.

BLK = BLK (Homo sapiens, UniProt P51451); assay: BLK enzymatic assay; conditions: read-out: Biochemical IC50, BLK; ATP at apparent KM
Protocol: as §6

CIA DBA/1 mice [8] = assay: Collagen-induced arthritis (CIA) mouse model, preventative dosing, with or without MTX; type: in vivo
Protocol: as §1, §2

Tec = Tec (Homo sapiens, UniProt P42680); assay: Tec kinase enzymatic assay; conditions: ATP at apparent KM; read-out: Biochemical IC50, Tec
Source text: (§7) Product turnover was quantitated using a Caliper LabChip 3000 (Caliper Life Sciences, Hopkinton, MA, USA). Similar assays were used for other kinases (Tec kinase, interleukin [IL]-2-inducible T-cell kinase, B-lymphocyte kinase, T cell-expressed kinase, and bone marrow-expressed kinase), with ATP concentrations equal to the apparent Michaelis constant (KM^app) for each kinase. […] [^33P]-ATP was used as a substrate at a concentration equal to KM^app, and incorporation of radiolabel into peptide or protein substrates was measured.

Ramos B cells [9] = assay: BCR-stimulated calcium flux in Ramos B cells; type: cell-based; conditions: Homo sapiens, BCR (anti-IgM), read-out: IC50, Ca2+ flux
Protocol: BCR-stimulated calcium flux in Ramos B cells: Human Ramos (RA1) B cells, a Burkitt’s lymphoma cell line (ATCC, CRL-1596), pre-loaded with calcium indicator dye (BD Biosciences, San Jose, CA, USA) in media containing 10% FBS, were plated on black clear-bottom assay plates at a density of 1 × 10^6 cells/mL (150,000 cells per well).

Lck = Lck (Homo sapiens, UniProt P06239); assay: Lck enzymatic assay; conditions: read-out: Biochemical IC50, Lck
[10] = system: B cells in human whole blood; assay: Human whole blood BCR-stimulated CD69 expression on B cells; type: cell-based; conditions: B-cell
Source text: The cells were stained with FITC-conjugated mouse anti-human CD20 (BD Pharmingen) and PE-conjugated mouse anti-human CD69 monoclonal antibody (BD Pharmingen), lysed and fixed, then washed. The amount of CD69 expression was quantitated by MFI after gating on the CD20-positive B-cell population as measured by FACS analysis.
The cells were stained with fluorescein isothiocyanate (FITC)-conjugated mouse anti-human CD20 (BD Pharmingen, San Diego, CA, USA) and phycoerythrin (PE)-conjugated mouse anti-human CD69 monoclonal antibody (BD Pharmingen), lysed, fixed, and then washed. The amount of CD69 expression was quantitated by MFI after gating on the CD20-positive B-cell population measured by FACS analysis.

CAIA BALB/c mice = assay: Collagen antibody-induced arthritis (CAIA) mouse model; type: in vivo
Protocol: Three days later, mice were injected IP with 1.25 mg/kg LPS from Escherichia coli O111:B4 (Sigma-Aldrich). Mice were monitored daily for development and severity of paw inflammation as described previously [24].

[11] = system: human peripheral blood B cells; assay: CD40L-induced CD69 expression on peripheral blood B cells; type: cell-based; conditions: B-cell, CD40 (CD40L)
Source text: (§5) The cells were stained with fluorescein isothiocyanate (FITC)-conjugated mouse anti-human CD20 antibody (BD Pharmingen, San Diego, CA, USA) and either allophycocyanin (APC)-conjugated mouse anti-human CD86 monoclonal antibody (BD Pharmingen) or phycoerythrin (PE)-conjugated mouse anti-human CD69 monoclonal antibody (BD Pharmingen). The amount of CD86 or CD69 expression was quantitated by median fluorescence intensity (MFI) after gating on the CD20-positive B-cell population using fluorescence-activated cell sorting (FACS) analysis. For analogous experiments measuring the effect of CD40 or Toll-like receptor 4 (TLR4) stimulation on these endpoints, either human IZ-CD40L or lipopolysaccharide (LPS) was used to stimulate the cells.

[12] = system: human peripheral blood mononuclear cells; assay: IC-stimulated IL-6 production in peripheral blood mononuclear cells; type: cell-based; conditions: PBMC, FcγR (immune complex)
Protocol: as §4

human tonsillar B cells [13] = assay: cells; conditions: B-cell, read-out: IC50, Proliferation
Protocol: The cells were then labeled with [^3H]-thymidine and incubated overnight at 37°C. Cells were then harvested onto filter plates and the amount of [^3H]-thymidine incorporation, as a measure of B-cell proliferation, was determined using liquid scintillation counting.

[14] = system: human monocytic osteoclast precursor cells; assay: RANK-L-induced osteoclastogenesis; type: cell-based; conditions: TRAP-positive multinucleated cells, 9 days in culture
Protocol: After 9 days in culture, cells were fixed and stained for tartrate-resistant acid phosphatase (TRAP; Sigma-Aldrich, St. Louis, MO, USA), and the number of TRAP-positive multinucleated cells (>2 nuclei per cell) was measured as described previously.

[15] = system: CD27+CD20+ memory B cells (peripheral blood); assay: BCR-stimulated CD86 expression on memory B cells; type: cell-based; conditions: Homo sapiens, B-cell, BCR (anti-IgM)
Source text: as §5

human tonsillar B cells [16] = assay: BCR-stimulated IL-6 from human tonsillar B cells; type: cell-based; conditions: B-cell, BCR (anti-IgM)
Protocol: as §3

[17] = system: basophils in human whole blood; assay: Human whole blood FcεRI (anti-IgE)-stimulated CD63 expression on basophils; type: cell-based; conditions: read-out: IC50, FcεRI-driven CD63 surface expression on basophils
Protocol: The blood was lysed and fixed, then washed. The percentage of CD63+ cells was measured after gating on the CCR3-positive basophil population by FACS analysis.
The blood was lysed, fixed, and then washed. The percentage of CD63+ cells was measured after gating on the C-C chemokine receptor type 3-positive basophil population by FACS analysis.

BMX = BMX (Homo sapiens, UniProt P51813); assay: BMX enzymatic assay; conditions: read-out: Biochemical IC50, BMX; ATP at apparent KM
Protocol: as §6

Txk = Txk (Homo sapiens, UniProt P42681); assay: Txk enzymatic assay; conditions: ATP at apparent KM; read-out: Biochemical IC50, Txk
Protocol: as §6

[18] = system: human peripheral blood B cells; assay: CD40L-induced CD86 expression on peripheral blood B cells; type: cell-based; conditions: B-cell, CD40 (CD40L)
Source text: as §5

FGR = FGR (Homo sapiens, UniProt P09769); assay: FGR enzymatic assay; conditions: read-out: Biochemical IC50, FGR
Src = Src (Homo sapiens, UniProt P12931); assay: Src enzymatic assay
Source text: as §7

human B cells = assay: Antigen receptor-dependent signaling and functional endpoints in human B cells (summary); type: cell-based; conditions: read-out: IC50, antigen receptor-dependent signaling and functional endpoints (cytokine production, co-stimulatory molecule expression, proliferation)
[19] = system: human peripheral blood mononuclear cells; assay: LPS (TLR4)-stimulated TNF-α in peripheral blood mononuclear cells; type: cell-based; conditions: PBMC
Protocol: as §4

ITK = ITK (Homo sapiens, UniProt Q08881); assay: ITK enzymatic assay; conditions: ATP at apparent KM; read-out: Biochemical IC50, ITK
Source text: as §7

Human recombinant BTK = Human recombinant BTK (Homo sapiens, UniProt Q06187); assay: Human recombinant BTK enzymatic assay (Caliper LabChip); conditions: 20 μM ATP, read-out: Biochemical IC50, BTK
Source text: as §7

[20] = system: human peripheral blood B cells; assay: BCR-stimulated CD86 expression on human peripheral blood B cells; type: cell-based; conditions: B-cell, BCR (anti-IgM)
Source text: as §5

IGF1R = IGF1R (Homo sapiens, UniProt P08069); assay: IGF1R enzymatic assay; conditions: read-out: Biochemical IC50, IGF1R
Source text: as §7

Human recombinant BTK, sequence (Q06187 whole entry): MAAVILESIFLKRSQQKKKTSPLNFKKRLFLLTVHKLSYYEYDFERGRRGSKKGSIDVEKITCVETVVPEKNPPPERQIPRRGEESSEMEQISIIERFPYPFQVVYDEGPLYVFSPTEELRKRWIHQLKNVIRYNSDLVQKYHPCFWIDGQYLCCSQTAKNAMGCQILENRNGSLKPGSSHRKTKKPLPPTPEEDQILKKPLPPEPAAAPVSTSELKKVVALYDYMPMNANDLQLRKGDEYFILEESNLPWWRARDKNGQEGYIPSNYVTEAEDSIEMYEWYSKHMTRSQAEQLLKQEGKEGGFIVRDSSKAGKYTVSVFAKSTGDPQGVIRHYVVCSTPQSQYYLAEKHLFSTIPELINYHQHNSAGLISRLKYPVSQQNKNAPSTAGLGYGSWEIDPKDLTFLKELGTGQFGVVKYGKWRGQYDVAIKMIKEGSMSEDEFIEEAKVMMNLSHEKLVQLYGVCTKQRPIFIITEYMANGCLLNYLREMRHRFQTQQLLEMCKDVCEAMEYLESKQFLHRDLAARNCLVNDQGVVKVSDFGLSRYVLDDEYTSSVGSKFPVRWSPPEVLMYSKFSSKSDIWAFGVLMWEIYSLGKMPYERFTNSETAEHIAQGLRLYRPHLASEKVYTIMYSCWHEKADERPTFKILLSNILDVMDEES
BLK, sequence (P51451 whole entry, species assumed): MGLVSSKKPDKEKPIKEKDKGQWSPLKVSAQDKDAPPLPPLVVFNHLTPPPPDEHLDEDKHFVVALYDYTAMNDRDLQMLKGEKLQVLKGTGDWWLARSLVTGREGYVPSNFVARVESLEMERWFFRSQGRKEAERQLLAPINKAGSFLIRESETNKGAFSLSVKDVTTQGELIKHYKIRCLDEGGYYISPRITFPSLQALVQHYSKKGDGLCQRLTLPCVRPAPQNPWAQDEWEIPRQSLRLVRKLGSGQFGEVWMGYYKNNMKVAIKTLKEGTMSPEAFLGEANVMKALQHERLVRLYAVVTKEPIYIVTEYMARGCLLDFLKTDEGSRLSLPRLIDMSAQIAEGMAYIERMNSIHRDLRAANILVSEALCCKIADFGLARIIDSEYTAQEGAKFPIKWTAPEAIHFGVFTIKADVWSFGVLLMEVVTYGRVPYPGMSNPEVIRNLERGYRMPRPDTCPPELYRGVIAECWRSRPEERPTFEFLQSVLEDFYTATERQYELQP
FGR, sequence (P09769 whole entry, species assumed): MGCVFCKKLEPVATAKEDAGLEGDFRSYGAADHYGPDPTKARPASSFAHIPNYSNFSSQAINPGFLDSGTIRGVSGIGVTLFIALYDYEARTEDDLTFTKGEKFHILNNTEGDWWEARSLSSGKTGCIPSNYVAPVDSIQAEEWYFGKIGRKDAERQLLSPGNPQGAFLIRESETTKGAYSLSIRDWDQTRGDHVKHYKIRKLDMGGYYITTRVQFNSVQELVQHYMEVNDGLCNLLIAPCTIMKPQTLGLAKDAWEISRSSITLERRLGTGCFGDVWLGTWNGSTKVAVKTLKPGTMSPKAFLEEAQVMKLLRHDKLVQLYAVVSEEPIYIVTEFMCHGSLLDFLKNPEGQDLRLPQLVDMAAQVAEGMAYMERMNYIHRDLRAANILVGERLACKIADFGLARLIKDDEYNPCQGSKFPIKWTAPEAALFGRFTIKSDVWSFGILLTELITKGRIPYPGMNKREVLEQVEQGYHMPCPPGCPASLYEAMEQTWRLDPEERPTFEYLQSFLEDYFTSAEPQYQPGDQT
Lck, sequence (P06239 whole entry, species assumed): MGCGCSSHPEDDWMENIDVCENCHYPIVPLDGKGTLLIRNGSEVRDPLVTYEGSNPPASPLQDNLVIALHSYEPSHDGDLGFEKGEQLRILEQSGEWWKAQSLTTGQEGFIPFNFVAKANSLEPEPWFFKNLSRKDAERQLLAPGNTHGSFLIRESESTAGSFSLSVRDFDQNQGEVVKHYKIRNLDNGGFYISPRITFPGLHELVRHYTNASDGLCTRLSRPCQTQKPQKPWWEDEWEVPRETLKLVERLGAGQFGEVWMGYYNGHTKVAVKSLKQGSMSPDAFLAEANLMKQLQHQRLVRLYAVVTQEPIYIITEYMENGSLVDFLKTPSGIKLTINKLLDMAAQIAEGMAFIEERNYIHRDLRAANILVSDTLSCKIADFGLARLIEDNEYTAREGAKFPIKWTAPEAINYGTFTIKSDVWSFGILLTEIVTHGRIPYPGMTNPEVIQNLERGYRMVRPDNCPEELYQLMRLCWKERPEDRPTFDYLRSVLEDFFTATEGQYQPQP
BMX, sequence (P51813 whole entry, species assumed): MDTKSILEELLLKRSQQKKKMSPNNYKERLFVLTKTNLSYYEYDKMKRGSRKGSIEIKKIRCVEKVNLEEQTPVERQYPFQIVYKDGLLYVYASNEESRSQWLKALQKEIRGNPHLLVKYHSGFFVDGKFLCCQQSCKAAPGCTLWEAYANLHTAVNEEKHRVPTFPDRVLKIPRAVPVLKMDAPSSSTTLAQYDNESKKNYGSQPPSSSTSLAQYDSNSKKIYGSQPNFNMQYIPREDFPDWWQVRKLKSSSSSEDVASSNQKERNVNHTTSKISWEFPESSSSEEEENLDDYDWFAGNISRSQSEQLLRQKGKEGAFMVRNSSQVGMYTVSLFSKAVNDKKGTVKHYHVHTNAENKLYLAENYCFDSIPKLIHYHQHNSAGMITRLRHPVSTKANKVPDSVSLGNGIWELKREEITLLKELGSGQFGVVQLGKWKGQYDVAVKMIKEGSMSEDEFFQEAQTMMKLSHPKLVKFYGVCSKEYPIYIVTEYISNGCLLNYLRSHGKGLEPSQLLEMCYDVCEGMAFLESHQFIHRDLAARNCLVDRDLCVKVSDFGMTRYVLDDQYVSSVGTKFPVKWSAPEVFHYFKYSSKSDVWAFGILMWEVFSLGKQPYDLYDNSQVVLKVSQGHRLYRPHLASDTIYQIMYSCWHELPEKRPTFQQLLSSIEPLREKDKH
ITK, sequence (Q08881 whole entry, species assumed): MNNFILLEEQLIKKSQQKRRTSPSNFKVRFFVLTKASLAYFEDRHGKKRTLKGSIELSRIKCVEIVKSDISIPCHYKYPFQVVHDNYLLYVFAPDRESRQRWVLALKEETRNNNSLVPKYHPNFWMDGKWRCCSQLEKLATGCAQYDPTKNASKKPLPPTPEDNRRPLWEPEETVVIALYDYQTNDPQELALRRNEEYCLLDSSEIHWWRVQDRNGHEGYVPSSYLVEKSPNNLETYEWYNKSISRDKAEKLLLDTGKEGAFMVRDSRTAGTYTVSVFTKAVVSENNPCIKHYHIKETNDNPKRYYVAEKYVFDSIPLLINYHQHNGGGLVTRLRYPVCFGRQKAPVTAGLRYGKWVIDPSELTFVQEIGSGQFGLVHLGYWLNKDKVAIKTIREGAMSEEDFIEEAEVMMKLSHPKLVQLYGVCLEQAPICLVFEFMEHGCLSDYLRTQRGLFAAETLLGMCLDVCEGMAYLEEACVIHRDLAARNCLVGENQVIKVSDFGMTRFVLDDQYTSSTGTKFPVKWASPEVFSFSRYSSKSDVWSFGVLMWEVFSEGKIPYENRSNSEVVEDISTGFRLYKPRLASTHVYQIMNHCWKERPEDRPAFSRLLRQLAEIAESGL
Src, sequence (P12931 whole entry, species assumed): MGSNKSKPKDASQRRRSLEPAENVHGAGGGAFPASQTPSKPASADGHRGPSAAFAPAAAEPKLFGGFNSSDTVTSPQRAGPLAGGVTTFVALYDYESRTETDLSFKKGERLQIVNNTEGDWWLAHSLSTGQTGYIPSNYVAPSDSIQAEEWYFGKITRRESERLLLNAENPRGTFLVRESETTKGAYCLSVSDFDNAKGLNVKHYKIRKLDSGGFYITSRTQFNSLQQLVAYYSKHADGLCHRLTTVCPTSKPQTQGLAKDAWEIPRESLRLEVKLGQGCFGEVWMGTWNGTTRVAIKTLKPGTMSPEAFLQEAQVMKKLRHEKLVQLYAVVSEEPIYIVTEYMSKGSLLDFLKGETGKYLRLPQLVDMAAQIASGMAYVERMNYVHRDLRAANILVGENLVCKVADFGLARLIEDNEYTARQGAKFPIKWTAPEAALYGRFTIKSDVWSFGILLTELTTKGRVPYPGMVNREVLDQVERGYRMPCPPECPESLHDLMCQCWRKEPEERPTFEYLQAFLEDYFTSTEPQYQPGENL
Tec, sequence (P42680 whole entry): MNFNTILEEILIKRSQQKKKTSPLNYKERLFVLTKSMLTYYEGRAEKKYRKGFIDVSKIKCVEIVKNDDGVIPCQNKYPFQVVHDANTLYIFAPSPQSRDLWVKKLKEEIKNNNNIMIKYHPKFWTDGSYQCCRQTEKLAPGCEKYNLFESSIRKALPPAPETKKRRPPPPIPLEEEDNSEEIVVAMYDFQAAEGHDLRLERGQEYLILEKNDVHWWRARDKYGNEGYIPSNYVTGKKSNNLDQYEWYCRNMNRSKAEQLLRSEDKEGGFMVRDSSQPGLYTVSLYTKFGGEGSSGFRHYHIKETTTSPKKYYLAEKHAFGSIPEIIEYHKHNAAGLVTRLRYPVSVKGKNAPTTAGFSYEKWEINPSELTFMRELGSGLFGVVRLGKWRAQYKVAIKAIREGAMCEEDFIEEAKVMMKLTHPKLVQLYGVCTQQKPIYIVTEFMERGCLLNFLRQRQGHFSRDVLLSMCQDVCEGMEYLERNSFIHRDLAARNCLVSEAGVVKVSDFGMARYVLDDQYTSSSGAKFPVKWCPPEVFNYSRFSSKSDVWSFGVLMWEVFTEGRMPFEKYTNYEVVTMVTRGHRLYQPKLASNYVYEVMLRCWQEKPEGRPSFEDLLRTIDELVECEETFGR

IC50 [2]: 140 nM | IC50 (CSK): 148 nM | IC50 (human tonsillar B cells [3]): 3 ± 3 nM | IC50 [4]: 3 ± 3 nM | IC50 (Ramos B cells [5]): ~20 nM | IC50 (BLK): 23 nM | IC50 (Tec): 10 nM | IC50 (Ramos B cells [9]): 9 ± 5 nM | IC50 (Lck): 71 nM | IC50 [10]: 90 nM | IC50 [11]: > 10000 nM | IC50 [12]: 4 ± 3 nM | IC50 [15]: 3 ± 3 nM | IC50 (human tonsillar B cells [16]): 5 ± 3 nM | IC50 [17]: 89 nM | IC50 (BMX): 32 nM | IC50 (Txk): 28 nM | IC50 [18]: > 10000 nM | IC50 (FGR): 81 nM | IC50 (Src): 1110 nM | IC50 [19]: > 30000 nM | IC50 (ITK): 15 nM | IC50 (Human recombinant BTK): 0.5 nM | IC50 [20]: 4 ± 3 nM | IC50 (IGF1R): 247 nM
SMILES: Cc1c(-c2c(F)cc(C(N)=O)c3[nH]c4c(c23)CC[C@H](C(C)(C)O)C4)cccc1-n1c(=O)c2cccc(F)c2n(C)c1=O [BMS-986142, 6-fluoro-5-(R)-(3-(S)-(8-fluoro-1-methyl-2,4-dioxo-1,2-dihydroquinazolin-3(4H)-yl)-2-methylphenyl)-2-(S)-(2-hydroxypropan-2-yl)-2,3,4,9-tetrahydro-1H-carbazole-8-carboxamide]
Reduction of clinical scores (CIA DBA/1 mice [1]): 46% | Clinical score reduction at end of study (CIA DBA/1 mice [6]; 2 mg/kg): 17% | Clinical score reduction at end of study (CIA DBA/1 mice [6]; 4 mg/kg): 37% | Clinical score reduction at end of study (CIA DBA/1 mice [6]; 25 mg/kg): 67% | Disease-induced remodeling/erosions and loss of bone mass compared with vehicle (micro-CT) (CIA DBA/1 mice [6]; therapeutic, 2, 4 and 25 mg/kg): dose-dependent protection | Inhibition of anti-KLH IgM response ([7]; 30 mg/kg PO QD, day 7): 77% | Inhibition of anti-KLH IgG response ([7]; 30 mg/kg PO QD, day 14): 87% | Anti-KLH IgM and IgG antibody responses versus vehicle ([7]; 10 and 30 mg/kg PO QD): Significant reductions | Disease-associated increase in splenic CD138+B220low plasma cells (CIA DBA/1 mice [8]): inhibited | Effect on B cell numbers (CIA DBA/1 mice [8]): did not deplete B cells | Expression of CD38 on plasma cells induced by disease (CIA DBA/1 mice [8]): inhibited | Reduction in clinically evident disease at end of study (CIA DBA/1 mice [8]; 4 mg/kg PO QD): 26% | Reduction in clinically evident disease at end of study (CIA DBA/1 mice [8]; 10 mg/kg PO QD): 43% | Reduction in clinically evident disease at end of study (CIA DBA/1 mice [8]; 30 mg/kg PO QD): 79% | Serum anti-collagen II IgG titers (CIA DBA/1 mice [8]; 10 and 30 mg/kg): significantly inhibited | Reduction in inflammation and bone resorption (histology) (CIA DBA/1 mice [8]; BMS-986142 4 mg/kg alone): 24% | Reduction of clinical scores at study end (CAIA BALB/c mice; 5 mg/kg, prophylactic): 72% | Inhibition of clinical scores at study end (CAIA BALB/c mice; 20 mg/kg, prophylactic): > 90% | Histological bone resorption and inflammation scores of hind paws (CAIA BALB/c mice; 5 and 20 mg/kg): effective at reducing bone resorption as well as inflammation scores | IC50 (human tonsillar B cells [13]): 3 ± 1 nM | Lowest concentration at which inhibition of RANK-L-induced osteoclastogenesis was evident [14]: 15 nM | IC50 (human B cells): ≤ 5 nM

SMILES: CN(Cc1cnc2nc(N)nc(N)c2n1)c1ccc(C(=O)N[C@@H](CCC(=O)O)C(=O)O)cc1 [MTX, methotrexate, reference compound]
Reduction in inflammation and bone resorption (histology) (CIA DBA/1 mice [8]; MTX alone): 10%
